Laboratory results from patent US20250073234A1, “COMBINATION THERAPIES INCLUDING PARP1 INHIBITORS” (Cornell University, priority 2022, published 2025).
Read-outs that look alike come from different tables or passages of the source.

Legend:
[1] = tested on: tumor-invaded lymph nodes and bones; experiment: Castrated TRAMP+/FVB mice, IHC of metastatic lymph nodes and bone; assay type: in vivo, mouse; settings: for αSMA expression and HA deposition in metastatic lymph nodes: 3 weeks
Procedure: Tissues from indicated mice were isolated, fixed in zinc buffered formalin overnight at 4° C., dehydrated, and embedded in paraffin. Sections (5 μm) were stained with hematoxylin and eosin (H&E). For immunohistochemistry, sections were deparaffinized, rehydrated, and then treated for antigen retrieval. After blocking in Protein Block Serum-Free solutions (DAKO), tissues were incubated with primary antibody overnight at 4° C. followed by incubation with biotinylated secondary antibody. Endogenous peroxidase was quenched in 3% H2O2 in water for 10 minutes at room temperature. Antibodies were visualized with avidin-biotin complex (Vectastain Elite; Vector Laboratories) using diaminobenzidine as the chromogen. Stained sections were analyzed with a Zeiss light microscope supplemented with Zen 3.3 Bule edition software.
For Olaparib treatment in mice, 13 weeks-old male TRAMP^+/FVB were surgical castrated, after 10 days n=16, were randomly distributed to receive vehicle, n=8, or Olaparib n=8 (5 mg/kg/, 5 days each, i.p.). Mice were euthanized 3 weeks after the initiation of the treatment. Prostate and other organs were collected and analyzed histologically.

[2] = tested on: WPMY-1 cells; experiment: ATAC-seq chromatin accessibility in WPMY-1 cells; assay type: cell-based, human; settings: Olaparib-treated WPMY-1 cells, 96 h
Procedure: The cell pellet was resuspended in 50 μl lysis buffer and then spun down 500×g for 10 minutes at 4° C. The nuclei pellet was resuspended into 50 μl transposition reaction mixture containing Tn5 transposase from Nextera DNA Library Prep Kit (Illumina) and incubated at 37° C. for 30 minutes. Then the transposase-associated DNA was purified using MinElute PCR purification kit (QIAGEN). To amplify the library, the DNA was first amplified for 5 cycles using indexing primer from Nextera kit and NEBNext High-Fidelity 2×PCR master mix. To reduce the PCR amplification bias, 5 μl of amplified DNA after the first 5 cycles was used to do qPCR of 20 cycles to decide the number of cycles for the second round of PCR. Usually, the maximum cycle of the second round of PCR is 5 cycles. Then the total amplified DNA was size selected to fragments less than 800 bp using SPRI beads. Quantification of the ATAC-seq library was done with QuBit. The size of the pooled library was examined by TapeStation. Barcoded ATAC-seq libraries were pooled and paired end sequenced (sX75) on the Illumina NextSeq 500 using the High output V2.5 kit (Illumina Inc., San Diego, CA).
Peaks were annotated with ChipSeeker R package. […].

[3] = tested on: bone marrow stromal cells; experiment: qPCR in mouse bone marrow stromal cells; assay type: cell-based
Procedure: Total RNA from mouse tissues, cells and cultured organoids was extracted using the TRIZOL reagent (Invitrogen) and the RNeasy Mini Kit (QIAGEN), followed by DNase treatment. After quantification using a Nanodrop 1000 spectrophotometer (Thermo Scientific), RNA was either processed for RNA-seq or reverse-transcribed using random primers and MultiScribe Reverse Transcriptase (Applied Biosystems). Gene expression was analyzed by amplifying 20 ng of the complementary DNA using the CFX96 Real Time PCR Detection System with SYBR Green Master Mix (BioRad) and primers described in Table S1. The amplification parameters were set at 95° C. for 30 seconds, 58° C. for 30 seconds, and 72° C. for 30 seconds (40 cycles total). Gene expression values for each sample were normalized to the 18s RNA.

[4] = tested on: PC3 cells; experiment: Click-iT EdU proliferation of PC3 cells treated with CM from WPMY-1 cells; assay type: cell-based, human; settings: CM from Olaparib-treated WPMY-1, 24 h
Procedure: WPMY-1 cells were cultured in DMEN containing 10% FBS (basal conditions) or 10% charcoal stripped FBS (ADT conditions), then the cells were treated with vehicle (DMSO), Olaparib 10 μM, Olaparib 10 μM+PEGPH20 2.5 μg/ml for 96 hours, refreshing media and stimuli at 48 hours, conditioned media (CM) was generated by collecting supernatant on day 4. PC3 cells were seeded in a black-walled well (Thermo Fisher) and serum starved overnight. CM from WPMY-1 cells was added to PC3 for 24 h. PC3 were exposed to EdU incorporation for the last 2 hours. Proliferating cells were detected using Click-iT EdU Alexa fluor 488 (Thermo Fisher) following the manufacturer's instructions. Pictures were taken using EVOS M5000 Imaging System and EdU positive were measured using Fiji (Schindelin et al., 2012).

In the case of `O=C(c1cc(Cc2n[nH]c(=O)c3ccccc23)ccc1F)N1CCN(C(=O)C2CC2)CC1` [Olaparib], the “HA in bone marrow stromal cells and growth plate” value [1] is reported as “increased HA deposition in the growth plate and stromal areas”, the “αSMA expression and HA deposition in metastatic lymph nodes” value [1] is reported as “increased stromal content upon Olaparib treatment” and the “αSMA expression and HA deposition in metastatic lymph nodes” value ([1]; listed as Ola) is reported as “increased «SMA expression and higher hyaluronan (HA) deposition”. The “HA in bone marrow stromal cells and growth plate” value ([1]; listed as Ola) was “higher levels of HA”, the chromatin accessibility [2] was “strong decrease in chromatin accessibility across the genome” and the “markers of stromal activation (Acta2, Has2)” value ([3]; cells isolated from in vivo treated mice, 40 mg/kg) was “enhanced expression of markers of stromal activation”. The “markers of TGFβ family (Tgfb3, Tgfb2) and Has3” value ([3]; in vitro, Olaparib 10 μM, 96 h) was “increased expression of markers of TGFβ family” and the “PC3 proliferation (EdU positive cells)” value [4] was “increased PC3 proliferation”.
